Counter-ions that a name gives are not always drawn.
What was measured:
[1] = molecular target: isolated strips of the descending aorta (Rattus norvegicus, UniProt P22002); test: cell-based; design: species or system Male Wistar rats; conditions: for Kb: isolated rat aorta, Ca2+ dose-response curves in 25 mM K+, Arunlakshana method, read-out: pA2 (converted)
Method: The in vitro calcium antagonistic activity of the subject compounds of the formula (I) was evaluated according to substantially the same method as that of Toda et al., J. Pharmacol. Exp. Ther. 181, 512 (1972) and ibid., 191, 139 (1974).
Male Wistar rats weighing 300-400 g were stunned by a sharp blow to the head. The isolated strips of the descending aorta were-fixed vartically in a 50 ml organ both containing Krebs-Henseleit solution maintained at 37° C. and saturated with a 95% O2 +5% CO2 gas mixture. Isometric tension was measured with a foree-displacement transducer and recorded on a polygraph recorder. During a 60-90 min equilibration period the resting tension was repeatedly adjusted to 1 g. The vessels having ability to potassium-induced contractions were exposed to a Ca^2+ -free medium for 30 min and then to 25 mM K^+ solution. When a contractile plateau was reached, Ca^2+ was added, and the cumulative response to 0.25, 0.5 and 4 mM Ca^2+ was recorded. After wash-out and a equilibration period with renewed testing of contractile ability, the preparations were once more exposed to Ca^2+ -free medium. The test compound was added to the organ bath 5 min before administration of potassium. Calcium was cumulatively added once again and the contractile response so obtained was expressed in percent of the contraction elicited by 4 mM Ca^2+. Dose-response curves for Ca^2+ were carried out cumulatively in the absence or presence of increasing concentrations of test compound. The pA2 values were calculated by the method of Arunlakshana et al., Brit. J. Pharmacol., 14, 48 (1959).

[2] = test system: isolated rabbit aortic strip; test: inhibition of norepinephrine-induced contractions of isolated rabbit aortic strip potentiated by ouabain; assay type: cell-based; conditions: Oryctolagus cuniculus, read-out: concentration at which norepinephrine-induced contractions are inhibited
SHR = test: 4 weeks administration to SHR, hypotensive potency; assay type: in vivo, spontaneous hypertensive rats (SHR); conditions: 15 mg/kg/day po
Method: The hypotensive potency of the compound D was also compared with that of nicardipine by administering to the SHR for 4 weeks at 15 mg/kg/day, po.

[3] = test system: spontaneous hypertensive rats (SHR); test: single oral administration to spontaneous hypertensive rats (SHR), antihypertensive activity; assay type: in vivo; conditions: compound D 1 mg/kg vs nicardipine 3 mg/kg
[4] = test system: physiological saline loaded rats; test: diuretic activity in physiological saline loaded rats; assay type: in vivo; conditions: compound D 3 mg/kg po vs nicardipine 10 mg/kg po
[5] = test system: mean arterial blood pressure; test: antihypertensive vasodilating activity in anesthetized, ganglion-blocked rats with blood pressure maintained by intravenous angiotensin II; assay type: in vivo; conditions: 0.01 mg/kg and 0.003 mg/kg
Method: The anesthetized and ganglion-blocked rats whose blood pressure were maintained by an intravenous infusion of angiotensin II were prepared and the test compounds were evaluated according to substantially the same method as that of Deitchman et al., J. Pharmacol Methods, 3, 311 (1980).

Sequence of isolated strips of the descending aorta (P22002 whole entry): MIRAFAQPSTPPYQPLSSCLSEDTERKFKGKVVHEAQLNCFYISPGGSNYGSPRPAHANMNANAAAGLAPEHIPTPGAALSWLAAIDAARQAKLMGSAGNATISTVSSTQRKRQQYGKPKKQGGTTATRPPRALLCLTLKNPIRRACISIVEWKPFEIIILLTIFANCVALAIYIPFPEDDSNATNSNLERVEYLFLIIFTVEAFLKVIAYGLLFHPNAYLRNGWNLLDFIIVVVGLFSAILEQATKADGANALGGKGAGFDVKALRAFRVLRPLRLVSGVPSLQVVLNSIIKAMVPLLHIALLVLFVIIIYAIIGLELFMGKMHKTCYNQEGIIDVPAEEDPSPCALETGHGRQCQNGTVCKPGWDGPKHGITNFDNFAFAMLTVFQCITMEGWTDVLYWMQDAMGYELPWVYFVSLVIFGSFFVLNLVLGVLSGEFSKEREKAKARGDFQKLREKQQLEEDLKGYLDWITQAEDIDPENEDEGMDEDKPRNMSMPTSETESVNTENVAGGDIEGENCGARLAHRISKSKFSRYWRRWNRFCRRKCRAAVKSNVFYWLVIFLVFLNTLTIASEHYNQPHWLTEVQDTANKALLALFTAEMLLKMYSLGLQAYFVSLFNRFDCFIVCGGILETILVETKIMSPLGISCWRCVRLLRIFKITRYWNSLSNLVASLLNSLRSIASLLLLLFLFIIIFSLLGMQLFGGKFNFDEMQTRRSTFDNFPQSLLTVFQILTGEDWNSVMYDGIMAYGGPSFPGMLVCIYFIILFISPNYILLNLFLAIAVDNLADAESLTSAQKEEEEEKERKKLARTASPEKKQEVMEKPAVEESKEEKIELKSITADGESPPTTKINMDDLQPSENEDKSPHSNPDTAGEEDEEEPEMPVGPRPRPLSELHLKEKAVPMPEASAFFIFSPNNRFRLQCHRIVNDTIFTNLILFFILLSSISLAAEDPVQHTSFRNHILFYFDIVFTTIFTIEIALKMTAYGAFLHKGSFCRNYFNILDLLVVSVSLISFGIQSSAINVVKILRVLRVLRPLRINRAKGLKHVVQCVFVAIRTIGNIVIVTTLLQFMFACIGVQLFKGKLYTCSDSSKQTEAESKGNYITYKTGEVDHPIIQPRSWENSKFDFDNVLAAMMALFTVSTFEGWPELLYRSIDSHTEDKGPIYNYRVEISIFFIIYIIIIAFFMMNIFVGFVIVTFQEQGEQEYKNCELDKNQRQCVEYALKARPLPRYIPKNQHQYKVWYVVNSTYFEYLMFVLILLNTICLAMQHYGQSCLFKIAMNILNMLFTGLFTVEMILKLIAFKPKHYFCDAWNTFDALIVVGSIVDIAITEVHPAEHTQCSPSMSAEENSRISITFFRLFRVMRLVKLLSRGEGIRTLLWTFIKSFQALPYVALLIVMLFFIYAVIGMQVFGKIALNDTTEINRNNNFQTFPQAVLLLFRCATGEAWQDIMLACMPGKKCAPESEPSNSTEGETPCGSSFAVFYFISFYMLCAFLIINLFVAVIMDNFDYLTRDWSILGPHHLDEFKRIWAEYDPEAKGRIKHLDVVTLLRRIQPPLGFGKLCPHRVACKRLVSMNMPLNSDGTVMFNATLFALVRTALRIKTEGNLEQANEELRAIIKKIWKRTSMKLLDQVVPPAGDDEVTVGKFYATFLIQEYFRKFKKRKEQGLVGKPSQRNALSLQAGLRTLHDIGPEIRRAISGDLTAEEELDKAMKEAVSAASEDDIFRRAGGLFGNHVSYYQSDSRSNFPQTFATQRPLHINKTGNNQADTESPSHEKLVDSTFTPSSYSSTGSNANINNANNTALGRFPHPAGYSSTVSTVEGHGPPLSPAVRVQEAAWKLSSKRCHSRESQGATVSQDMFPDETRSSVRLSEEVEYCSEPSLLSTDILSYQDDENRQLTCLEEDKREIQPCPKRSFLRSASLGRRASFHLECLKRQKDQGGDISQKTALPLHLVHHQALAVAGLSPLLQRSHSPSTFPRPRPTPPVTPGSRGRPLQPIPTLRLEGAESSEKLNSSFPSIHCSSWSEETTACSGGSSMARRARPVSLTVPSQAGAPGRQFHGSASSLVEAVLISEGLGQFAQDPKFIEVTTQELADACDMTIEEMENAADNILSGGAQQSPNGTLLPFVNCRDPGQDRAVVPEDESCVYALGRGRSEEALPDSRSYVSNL
Sequence of isolated strips of the descending aorta (P54290 25-944 partner limits assumed): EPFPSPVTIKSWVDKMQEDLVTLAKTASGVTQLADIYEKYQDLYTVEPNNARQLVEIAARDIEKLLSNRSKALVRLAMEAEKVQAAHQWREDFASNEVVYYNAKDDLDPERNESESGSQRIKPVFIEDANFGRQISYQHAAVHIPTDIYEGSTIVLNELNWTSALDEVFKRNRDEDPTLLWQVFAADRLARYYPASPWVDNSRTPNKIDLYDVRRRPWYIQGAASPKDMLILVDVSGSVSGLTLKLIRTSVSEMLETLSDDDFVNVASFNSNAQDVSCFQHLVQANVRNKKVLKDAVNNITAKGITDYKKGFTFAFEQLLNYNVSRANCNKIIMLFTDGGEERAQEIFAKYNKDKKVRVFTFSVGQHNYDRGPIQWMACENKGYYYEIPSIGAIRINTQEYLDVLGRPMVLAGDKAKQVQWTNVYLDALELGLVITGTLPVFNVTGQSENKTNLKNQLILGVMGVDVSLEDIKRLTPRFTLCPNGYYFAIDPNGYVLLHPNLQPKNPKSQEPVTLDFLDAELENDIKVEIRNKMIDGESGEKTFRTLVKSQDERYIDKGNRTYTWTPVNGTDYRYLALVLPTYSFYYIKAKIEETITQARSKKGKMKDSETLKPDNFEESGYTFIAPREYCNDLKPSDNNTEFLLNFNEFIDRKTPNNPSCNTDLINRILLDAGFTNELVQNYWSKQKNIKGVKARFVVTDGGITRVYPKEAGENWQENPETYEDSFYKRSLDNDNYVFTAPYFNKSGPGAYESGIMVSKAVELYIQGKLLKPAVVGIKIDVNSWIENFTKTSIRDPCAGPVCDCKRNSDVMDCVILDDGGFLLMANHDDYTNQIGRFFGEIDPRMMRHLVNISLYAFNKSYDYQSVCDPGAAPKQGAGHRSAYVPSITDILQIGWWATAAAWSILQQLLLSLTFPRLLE
Sequence of isolated strips of the descending aorta (P54290 945-1091 partner limits assumed): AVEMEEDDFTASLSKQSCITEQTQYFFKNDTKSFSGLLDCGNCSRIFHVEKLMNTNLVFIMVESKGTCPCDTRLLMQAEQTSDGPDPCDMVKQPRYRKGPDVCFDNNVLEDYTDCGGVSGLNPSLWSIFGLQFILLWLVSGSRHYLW

`COC(=O)C1=C(C)NC(C)=C(c2nc(CN3CCCCC3)no2)C1c1cccc([N+](=O)[O-])c1` (centres unmarked) [A, Methyl 1,4-dihydro-2,6-dimethyl-3-(3-piperidinomethyl-1,2,4-oxadiazol-5-yl)-4-(3-nitrophenyl)pyridine-5-carboxylate hydrochloride] showed a Kb [1] of 0.0309 nM.
In the case of `COC(=O)C1=C(C)NC(C)=C(c2nc(C)no2)C1c1cccc([N+](=O)[O-])c1` (centres unmarked) [Compound R1, Methyl 1,4-dihydro-2,6-dimethyl-3-(3-methyl-1,2,4-oxadiazol-5-yl)-4-(3-nitrophenyl)pyridine-5-carboxylate, reference compound], the “calcium antagonistic potency: times less potent than the subject compounds” value ([1]; R1 compared with compounds A-G) is reported as 100-1000 times and the Kb [1] is reported as 32.4 nM.
For `COC(=O)C1=C(C)NC(C)=C(c2nc(CN3CCCCC3)no2)C1c1ccccc1` (centres unmarked) [B, Methyl 1,4-dihydro-2,6-dimethyl-3-(3-piperidinomethyl-1,2,4-oxadiazol-5-yl)-4-phenylpyridine-5-carboxylate hydrochloride], the Kb [1] was 0.363 nM.
For `COC(=O)C1=C(C)NC(C)=C(c2nc(CN(C)CCc3ccc(OC)c(OC)c3)no2)C1c1cccc([N+](=O)[O-])c1` (centres unmarked) [F, Methyl 1,4-dihydro-2,6-dimethyl-3-[3-[N--(3,4-dimethoxyphenethyl)-N--methyl-amino]methyl-1,2,4-oxadiazol-5-yl]-4-(3-nitrophenyl)pyridine-5-carboxylate hydrochloride], the minimal effective concentration [2] was 0.01 µM and the Kb [1] was 0.0955 nM.
With `COC(=O)C1=C(C)NC(C)=C(C(=O)OCCN(C)Cc2ccccc2)C1c1cccc([N+](=O)[O-])c1` (centres unmarked) [Compound R3, 2-(N--Benzyl-N--methylamino)ethyl methyl 1,4-dihydro-2,6-dimethyl-4-(3-nitrophenyl)pyridine-3,5-dicarboxylate, reference compound] the “antihypertensive activity on 4 weeks administration” value (SHR) was “no significant effects”, the minimal effective concentration [2] was greater than 0.1 µM and the Kb [1] was 0.417 nM.
`COC(=O)C1=C(C)NC(C)=C(c2nc(CN(C)Cc3ccccc3)no2)C1c1cccc([N+](=O)[O-])c1` (centres unmarked) [D, Methyl 1,4-dihydro-2,6-dimethyl-3-[3-(N--benzyl-N--methylamino)methyl-1,2,4-oxadiazol-5-yl]-4-(3-nitrophenyl)-pyridine-5-carboxylate hydrochloride] was tested, and the “antihypertensive activity on 4 weeks administration” value (SHR) was “apparent antihypertensive activity”, the heart rate (SHR) was “slight decrease of heart rate” and the minimal effective concentration [2] was 0.01 µM. For the same compound, the “antihypertensive activity in SHR” value [3] was “about the same antihypertensive activity as that of nicardipine 3 mg/kg”, the “duration of antihypertensive effect in SHR” value [3] was “continued much longer than that of nicardipine” and the Kb [1] was 0.186 nM. For the same compound, the diuretic activity [4] was “about the same diuretic activity as that of nicardipine 10 mg/kg, po” and the “antihypertensive effects in comparison with nifedipine and nicardipine” value [5] was “dose-dependently more potent and long acting antihypertensive effects in comparison with nifedipine and nicardipine”.
For `CC1=C(C(=O)OC(C)C)C(c2cccc([N+](=O)[O-])c2)C(c2nc(CN(C)Cc3ccccc3)no2)=C(C)N1` (centres unmarked) [G, Isopropyl 1,4-dihydro-2,6-dimethyl-3-[3-(N--benzyl-N--methylamino)methyl-1,2,4-oxadiazol-5-yl]-4-(3-nitrophenyl)-pyridine-5-carboxylate hydrochloride], the Kb [1] was 0.355 nM.
`COC(=O)C1=C(C)NC(C)=C(c2nc(CN3CCCCC3)no2)C1c1ccc(Cl)c(Cl)c1` (centres unmarked) [C, Methyl 1,4-dihydro-2,6-dimethyl-3-(3-piperidinomethyl-1,2,4-oxadiazol-5-yl)-4-(3,4-dichlorophenyl)pyridine-5-carboxylate hydrochloride] showed a Kb [1] of 0.129 nM.
In the case of `COC(=O)C1=C(C)NC(C)=C(c2nc(CNC(C)c3ccccc3)no2)C1c1cccc([N+](=O)[O-])c1` (stereo not drawn) [E, Methyl 1,4-dihydro-2,6-dimethyl-3-[3-(α-methylbenzylamino)methyl-1,2,4-oxadiazol-5-yl]-4-(3-nitrophenyl)-pyridine-5-carboxylate citrate], the Kb [1] is reported as 0.0457 nM.
